Reference: ChEMBL document CHEMBL3431459, “Roche carnitine palmitoyltransferase modulator screening data (supplementary data associated with the publication CHEMBL2216752)”
Converted amounts (≈) assume the structure as drawn.

Key:
[1] = SUPPLEMENTARY: Lipophilicity (log D) Determination by high-throughput shake-flask; assay type: physicochemical; conditions: octanol/water
[2] = molecular target: T1, Carnitine O-palmitoyltransferase 1, muscle isoform (Homo sapiens, UniProt Q92523); assay: SUPPLEMENTARY: Inhibition of Carnitine palmitoyltransferase 1, muscle isoform; parameters: species or system Muscle tissue
T1 sequence (Q92523 whole entry): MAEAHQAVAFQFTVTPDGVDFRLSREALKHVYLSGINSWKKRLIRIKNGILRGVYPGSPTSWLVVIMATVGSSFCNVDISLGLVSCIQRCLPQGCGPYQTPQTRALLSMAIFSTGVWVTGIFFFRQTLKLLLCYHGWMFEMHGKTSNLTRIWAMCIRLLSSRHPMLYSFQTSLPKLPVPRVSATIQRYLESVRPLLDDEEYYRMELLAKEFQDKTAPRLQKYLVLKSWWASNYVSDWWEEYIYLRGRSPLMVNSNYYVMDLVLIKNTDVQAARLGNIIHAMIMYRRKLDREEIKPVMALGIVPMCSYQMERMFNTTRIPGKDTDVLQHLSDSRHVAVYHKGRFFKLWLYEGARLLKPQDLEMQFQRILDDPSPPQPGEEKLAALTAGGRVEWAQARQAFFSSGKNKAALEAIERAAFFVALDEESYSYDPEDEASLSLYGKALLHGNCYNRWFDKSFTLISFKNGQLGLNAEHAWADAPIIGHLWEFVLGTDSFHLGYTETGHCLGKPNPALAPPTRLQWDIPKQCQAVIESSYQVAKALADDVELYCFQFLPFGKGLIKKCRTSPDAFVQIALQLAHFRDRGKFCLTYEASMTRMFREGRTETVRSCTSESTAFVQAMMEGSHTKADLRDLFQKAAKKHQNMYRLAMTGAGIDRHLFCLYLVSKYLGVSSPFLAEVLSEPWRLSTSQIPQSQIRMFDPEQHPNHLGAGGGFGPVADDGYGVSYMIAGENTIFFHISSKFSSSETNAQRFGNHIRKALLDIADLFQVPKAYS

[3] = SUPPLEMENTARY: Lyophilisation Solubility Assay (LYSA); assay type: physicochemical; conditions: read-out: Kinetic_solubility
[4] = molecular target: T2, Carnitine O-palmitoyltransferase 1, liver isoform (Rattus norvegicus, UniProt P32198); assay: (§1) SUPPLEMENTARY: Inhibition of Carnitine palmitoyltransferase 1, liver isoform
T2 sequence (P32198 whole entry): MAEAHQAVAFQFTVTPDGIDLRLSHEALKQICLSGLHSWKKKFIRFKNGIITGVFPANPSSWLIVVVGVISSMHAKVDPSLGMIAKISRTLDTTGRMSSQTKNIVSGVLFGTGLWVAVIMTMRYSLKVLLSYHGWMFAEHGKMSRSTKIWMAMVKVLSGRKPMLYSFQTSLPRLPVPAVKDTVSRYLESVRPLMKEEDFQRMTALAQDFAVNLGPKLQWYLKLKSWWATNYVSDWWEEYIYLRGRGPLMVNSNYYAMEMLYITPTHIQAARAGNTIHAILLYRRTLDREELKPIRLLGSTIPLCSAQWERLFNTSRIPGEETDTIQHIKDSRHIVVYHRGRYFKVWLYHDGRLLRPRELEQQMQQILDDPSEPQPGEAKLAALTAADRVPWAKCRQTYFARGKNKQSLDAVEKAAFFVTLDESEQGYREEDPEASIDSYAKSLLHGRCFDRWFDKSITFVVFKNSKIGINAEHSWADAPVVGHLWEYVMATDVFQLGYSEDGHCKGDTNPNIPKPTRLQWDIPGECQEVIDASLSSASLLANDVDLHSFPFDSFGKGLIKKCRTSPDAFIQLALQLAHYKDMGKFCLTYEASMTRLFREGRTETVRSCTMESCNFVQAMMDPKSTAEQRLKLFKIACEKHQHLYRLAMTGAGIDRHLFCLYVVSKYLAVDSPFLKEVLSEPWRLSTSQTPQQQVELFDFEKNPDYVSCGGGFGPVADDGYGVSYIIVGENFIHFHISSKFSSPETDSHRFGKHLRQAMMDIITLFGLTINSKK

[5] = molecular target: T3, Carnitine O-palmitoyltransferase 1, liver isoform (Homo sapiens, UniProt P50416); assay: as §1
T3 sequence (P50416 whole entry): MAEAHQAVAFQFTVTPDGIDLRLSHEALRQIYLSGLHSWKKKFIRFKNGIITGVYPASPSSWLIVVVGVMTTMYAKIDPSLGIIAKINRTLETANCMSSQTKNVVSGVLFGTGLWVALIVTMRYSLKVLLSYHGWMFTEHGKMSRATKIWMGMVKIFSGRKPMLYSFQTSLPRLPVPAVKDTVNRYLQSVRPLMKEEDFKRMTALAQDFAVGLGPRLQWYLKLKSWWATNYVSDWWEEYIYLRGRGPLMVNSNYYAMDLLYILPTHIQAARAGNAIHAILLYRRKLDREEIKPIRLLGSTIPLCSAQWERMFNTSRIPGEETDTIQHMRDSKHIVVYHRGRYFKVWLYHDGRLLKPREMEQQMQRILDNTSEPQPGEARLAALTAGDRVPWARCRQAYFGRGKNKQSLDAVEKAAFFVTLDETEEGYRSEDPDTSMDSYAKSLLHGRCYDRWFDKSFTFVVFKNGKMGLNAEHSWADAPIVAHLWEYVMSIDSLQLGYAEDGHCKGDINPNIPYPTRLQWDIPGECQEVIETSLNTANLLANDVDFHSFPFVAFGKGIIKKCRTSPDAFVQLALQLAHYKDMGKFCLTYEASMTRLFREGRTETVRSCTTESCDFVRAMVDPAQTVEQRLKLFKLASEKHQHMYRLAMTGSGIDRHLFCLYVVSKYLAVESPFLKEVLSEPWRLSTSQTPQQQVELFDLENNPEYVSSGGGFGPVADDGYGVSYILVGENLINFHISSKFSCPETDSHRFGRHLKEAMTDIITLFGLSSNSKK

[6] = SUPPLEMENTARY: PAMPA permeability assay; assay type: physicochemical; conditions: read-out: Permeability
[7] = molecular target: T4, Carnitine O-palmitoyltransferase 2, mitochondrial (Rattus norvegicus, UniProt P18886); assay: (§2) SUPPLEMENTARY: Inhibition of Carnitine palmitoyltransferase 2
T4 sequence (P18886 whole entry): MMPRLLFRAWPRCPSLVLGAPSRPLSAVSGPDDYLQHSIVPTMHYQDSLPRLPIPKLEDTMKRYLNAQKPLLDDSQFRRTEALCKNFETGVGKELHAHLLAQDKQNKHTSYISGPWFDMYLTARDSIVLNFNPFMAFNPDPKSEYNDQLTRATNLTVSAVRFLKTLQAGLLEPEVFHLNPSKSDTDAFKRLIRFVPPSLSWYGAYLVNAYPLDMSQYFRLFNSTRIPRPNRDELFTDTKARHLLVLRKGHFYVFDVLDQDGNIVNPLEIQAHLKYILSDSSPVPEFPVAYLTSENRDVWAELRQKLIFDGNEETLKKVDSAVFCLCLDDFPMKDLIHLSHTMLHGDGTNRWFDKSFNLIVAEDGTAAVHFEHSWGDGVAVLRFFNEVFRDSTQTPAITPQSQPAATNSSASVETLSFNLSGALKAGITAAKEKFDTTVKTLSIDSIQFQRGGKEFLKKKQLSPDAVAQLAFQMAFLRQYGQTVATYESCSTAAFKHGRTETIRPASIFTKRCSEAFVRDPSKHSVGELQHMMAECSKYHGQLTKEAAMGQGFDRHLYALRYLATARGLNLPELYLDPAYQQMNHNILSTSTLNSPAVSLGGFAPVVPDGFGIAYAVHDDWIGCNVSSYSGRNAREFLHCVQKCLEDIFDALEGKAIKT

[8] = molecular target: T5, Carnitine O-palmitoyltransferase 2, mitochondrial (Homo sapiens, UniProt P23786); assay: as §2
T5 sequence (P23786 whole entry): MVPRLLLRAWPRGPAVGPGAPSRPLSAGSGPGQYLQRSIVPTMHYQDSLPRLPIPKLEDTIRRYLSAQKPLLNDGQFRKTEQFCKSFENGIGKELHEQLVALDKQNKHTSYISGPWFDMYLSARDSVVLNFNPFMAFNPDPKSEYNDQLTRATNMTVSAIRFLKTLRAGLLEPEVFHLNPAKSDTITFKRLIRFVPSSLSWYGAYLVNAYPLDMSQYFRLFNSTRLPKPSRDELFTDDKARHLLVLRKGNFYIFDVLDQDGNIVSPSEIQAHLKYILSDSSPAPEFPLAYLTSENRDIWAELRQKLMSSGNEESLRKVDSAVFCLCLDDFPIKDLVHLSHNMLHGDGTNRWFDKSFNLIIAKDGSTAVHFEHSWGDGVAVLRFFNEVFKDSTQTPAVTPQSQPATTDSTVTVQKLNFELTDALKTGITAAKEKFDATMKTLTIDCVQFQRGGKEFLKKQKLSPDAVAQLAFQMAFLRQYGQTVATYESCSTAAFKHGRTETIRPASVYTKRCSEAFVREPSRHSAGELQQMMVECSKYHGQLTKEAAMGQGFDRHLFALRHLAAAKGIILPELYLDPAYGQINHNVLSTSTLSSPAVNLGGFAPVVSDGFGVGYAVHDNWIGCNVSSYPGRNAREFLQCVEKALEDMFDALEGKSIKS

| Structure (SMILES) | logD [1] | IC50 [2] | solubility kinetic [3] | IC50 [4] | IC50 [5] | Papp [6] | IC50 [7] | IC50 [8] |
| --- | --- | --- | --- | --- | --- | --- | --- | --- |
| Cn1ccc(-c2nc([C@H]3CCCCN3C(=O)COc3ccccc3)no2)n1 | 2.16 | > 100000 nM | 94 µg/mL (≈ 256 µM) | 555 nM | 156 nM | 9.41 ×10⁻⁶ cm/s | > 100000 nM | > 100000 nM |
| O=C(COc1ccccc1)N1CCCC[C@@H]1c1nc(-c2cccc(-n3cn[nH]c3=O)c2)no1 | 2.42 | > 100000 nM | 40 µg/mL (≈ 89.6 µM) | 456 nM | 96.3 nM | 4.87 ×10⁻⁶ cm/s | > 100000 nM | 51500 nM |
| Cc1cc(-c2noc([C@H]3CCCCN3C(=O)COc3ccccc3)n2)no1 | 2.34 | > 100000 nM | 141 µg/mL (≈ 383 µM) | 611 nM | 137 nM | 3.94 ×10⁻⁶ cm/s | > 100000 nM | > 100000 nM |
| COc1ccc(Cl)cc1S(=O)(=O)N1CCc2ccc(C(=O)Nc3ccc(C(=O)O)c(Cl)c3)cc21 | 0.26 | 755 nM | > 579 µg/mL | 92.6 nM | 132 nM | 1.2 ×10⁻⁶ cm/s | 3410 nM | 966 nM |
| CC(=O)Nc1cc(-c2noc([C@H]3CCCCN3C(=O)COc3ccccc3)n2)ccc1F | 3 | > 100000 nM | 18 µg/mL (≈ 41.1 µM) | 146 nM | 27.9 nM | 2.17 ×10⁻⁶ cm/s | > 100000 nM | > 100000 nM |
| O=C1Cc2cc(-c3noc(C4C5CC5CN4C(=O)COc4ccccc4)n3)ccc2N1 (stereo not drawn) | 2.51 | 39000 nM | 38 µg/mL (≈ 91.3 µM) | 388 nM | 136 nM | 5.4 ×10⁻⁶ cm/s | 94400 nM | 65000 nM |
| Cn1cc(S(=O)(=O)c2cccc(Cl)c2)c2cc(C(=O)Nc3ccc(C(=O)O)cc3)ccc21 | 2.54 | 920 nM | 3 µg/mL (≈ 6.4 µM) | 11.2 nM | 18.8 nM | 1.01 ×10⁻⁶ cm/s | 2500 nM | 1500 nM |
| NC(=O)c1ccc(-c2csc([C@H]3CCCCN3C(=O)COc3ccccc3)n2)cc1 | 2.26 | > 100000 nM | 43 µg/mL (≈ 102 µM) | 484 nM | 239 nM | 5.48 ×10⁻⁶ cm/s | 75200 nM | 18900 nM |
| COc1ccc(Cl)cc1S(=O)(=O)c1cn(C)c2ccc(C(=O)Nc3ccc(C(=O)O)cc3)cc12 | 2.36 | 2320 nM | 12 µg/mL (≈ 24.1 µM) | 51.8 nM | 71.6 nM | 0.47 ×10⁻⁶ cm/s | 4270 nM | 579 nM |
| COc1ccc(-c2noc([C@H]3CCCCN3C(=O)C#Cc3ccccc3)n2)cc1 | > 3 | > 100000 nM | < 1 µg/mL | 500 nM | 288 nM | 2.48 ×10⁻⁶ cm/s | > 100000 nM | > 100000 nM |
| CCOc1ccc(C(=O)Nc2ccc(CC(=O)O)cc2)cc1N(CCS(=O)O)S(=O)(=O)c1cc(Cl)ccc1OC | < -1 | 634 nM | 577 µg/mL (≈ 944 µM) | 408 nM | 105 nM | 0.04 ×10⁻⁶ cm/s | > 100000 nM | > 100000 nM |
